Test system: 695427-040-R-J1-PDC complex spheroids, viability percent T/C
Assay: Anticancer human tumor 695427-040-R-J1-PDC patient-derived colon adenocarcinoma cell line growth inhibition [GQUAD]
Details: for IC50: curve of first compound; for viability, T/C: stronger effect = lower value
Summary of the method: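 Viability of tumor cells grown as complex spheroids with endothelial and stromal cells, exposed to drug combinations. Top concentration at or near clinical Cmax (else 10 microM), diluted in half-log increments.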

[1] = second compound 0.0316 µM, first compound 0.0316 µM
[2] = second compound 0.0316 µM, first compound 0.1 µM
[3] = second compound 0.0316 µM, first compound 0.316 µM
[4] = second compound 0.0316 µM, first compound 1 µM
[5] = second compound 0.0316 µM, first compound 3.16 µM
[6] = second compound 0.0316 µM, first compound 10 µM
[7] = second compound 0.1 µM, first compound 0.0316 µM
[8] = second compound 0.1 µM, first compound 0.1 µM
[9] = second compound 0.1 µM, first compound 0.316 µM
[10] = second compound 0.1 µM, first compound 1 µM
[11] = second compound 0.1 µM, first compound 3.16 µM
[12] = second compound 0.1 µM, first compound 10 µM
[13] = second compound 0.316 µM, first compound 0.0316 µM
[14] = second compound 0.316 µM, first compound 0.1 µM
[15] = second compound 0.316 µM, first compound 0.316 µM
[16] = second compound 0.316 µM, first compound 1 µM
[17] = second compound 0.316 µM, first compound 3.16 µM
[18] = second compound 0.316 µM, first compound 10 µM
[19] = second compound 1 µM, first compound 0.0316 µM
[20] = second compound 1 µM, first compound 0.1 µM
[21] = second compound 1 µM, first compound 0.316 µM
[22] = second compound 1 µM, first compound 1 µM
[23] = second compound 1 µM, first compound 3.16 µM
[24] = second compound 1 µM, first compound 10 µM
[25] = second compound 3.16 µM, first compound 0.0316 µM
[26] = second compound 3.16 µM, first compound 0.1 µM
[27] = second compound 3.16 µM, first compound 0.316 µM
[28] = second compound 3.16 µM, first compound 1 µM
[29] = second compound 3.16 µM, first compound 3.16 µM
[30] = second compound 3.16 µM, first compound 10 µM
[31] = second compound 10 µM, first compound 0.0316 µM
[32] = second compound 10 µM, first compound 0.1 µM
[33] = second compound 10 µM, first compound 0.316 µM
[34] = second compound 10 µM, first compound 1 µM
[35] = second compound 10 µM, first compound 3.16 µM
[36] = second compound 10 µM, first compound 10 µM
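Note: spheroids exposed to compounds for seven days before readout.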

SMILES: COc1cccc2c1C(=O)c1c(O)c3c(c(O)c1C2=O)CC(O)(C(=O)CO)CC3OC1CC(N)C(O)C(C)O1 (stereo unspecified) + Cc1[nH]c2ccc(F)cc2c1-c1nc2c3cccnc3c3ncccc3c2[nH]1
- IC50 (second compound 0.0316 µM): > 10 µM
- IC50 (second compound 0.1 µM): > 10 µM
- IC50 (second compound 0.316 µM): > 10 µM
- IC50 (second compound 1 µM): > 10 µM
- IC50 (second compound 3.16 µM): 4.85 µM
- IC50 (second compound 10 µM): 5.56 µM
- viability, T/C [1]: 98.6%
- viability, T/C [2]: 88.4%
- viability, T/C [3]: 96.9%
- viability, T/C [4]: 87.1%
- viability, T/C [5]: 60.6%
- viability, T/C [6]: 50.7%
- viability, T/C [7]: 104%
- viability, T/C [8]: 98.8%
- viability, T/C [9]: 91.3%
- viability, T/C [10]: 71.9%
- viability, T/C [11]: 74.4%
- viability, T/C [12]: 48.9%
- viability, T/C [13]: 95.2%
- viability, T/C [14]: 77.9%
- viability, T/C [15]: 87.1%
- viability, T/C [16]: 73.8%
- viability, T/C [17]: 71.5%
- viability, T/C [18]: 49.6%
- viability, T/C [19]: 83%
- viability, T/C [20]: 92.4%
- viability, T/C [21]: 78.8%
- viability, T/C [22]: 72.5%
- viability, T/C [23]: 71.2%
- viability, T/C [24]: 49.6%
- viability, T/C [25]: 59.6%
- viability, T/C [26]: 86.8%
- viability, T/C [27]: 70.4%
- viability, T/C [28]: 59.4%
- viability, T/C [29]: 56.8%
- viability, T/C [30]: 42.5%
- viability, T/C [31]: 65.9%
- viability, T/C [32]: 80.1%
- viability, T/C [33]: 65%
- viability, T/C [34]: 70.9%
- viability, T/C [35]: 62.2%
- viability, T/C [36]: 37%

SMILES: Cc1[nH]c2ccccc2c1CCNCc1ccc(/C=C/C(=O)NO)cc1 + Cc1[nH]c2ccc(F)cc2c1-c1nc2c3cccnc3c3ncccc3c2[nH]1
- IC50 (second compound 0.0316 µM): > 0.316 µM
- IC50 (second compound 0.1 µM): > 0.316 µM
- IC50 (second compound 0.316 µM): > 0.316 µM
- IC50 (second compound 1 µM): > 0.316 µM
- IC50 (second compound 3.16 µM): > 0.316 µM
- IC50 (second compound 10 µM): > 0.316 µM
- viability, T/C (second compound 0.0316 µM, first compound 0.000999 µM): 109%
- viability, T/C (second compound 0.0316 µM, first compound 0.00316 µM): 90%
- viability, T/C (second compound 0.0316 µM, first compound 0.00999 µM): 101%
- viability, T/C [1]: 102%
- viability, T/C (second compound 0.0316 µM, first compound 0.0999 µM): 106%
- viability, T/C [3]: 94.5%
- viability, T/C (second compound 0.1 µM, first compound 0.000999 µM): 115%
- viability, T/C (second compound 0.1 µM, first compound 0.00316 µM): 94.5%
- viability, T/C (second compound 0.1 µM, first compound 0.00999 µM): 91.1%
- viability, T/C [7]: 93.4%
- viability, T/C (second compound 0.1 µM, first compound 0.0999 µM): 95.7%
- viability, T/C [9]: 88.6%
- viability, T/C (second compound 0.316 µM, first compound 0.000999 µM): 98.8%
- viability, T/C (second compound 0.316 µM, first compound 0.00316 µM): 84.8%
- viability, T/C (second compound 0.316 µM, first compound 0.00999 µM): 94.2%
- viability, T/C [13]: 104%
- viability, T/C (second compound 0.316 µM, first compound 0.0999 µM): 100%
- viability, T/C [15]: 86.7%
- viability, T/C (second compound 1 µM, first compound 0.000999 µM): 94.3%
- viability, T/C (second compound 1 µM, first compound 0.00316 µM): 88.6%
- viability, T/C (second compound 1 µM, first compound 0.00999 µM): 96.8%
- viability, T/C [19]: 93.5%
- viability, T/C (second compound 1 µM, first compound 0.0999 µM): 98.9%
- viability, T/C [21]: 90.8%
- viability, T/C (second compound 3.16 µM, first compound 0.000999 µM): 75.2%
- viability, T/C (second compound 3.16 µM, first compound 0.00316 µM): 78.3%
- viability, T/C (second compound 3.16 µM, first compound 0.00999 µM): 86%
- viability, T/C [25]: 74.5%
- viability, T/C (second compound 3.16 µM, first compound 0.0999 µM): 78%
- viability, T/C [27]: 67.3%
- viability, T/C (second compound 10 µM, first compound 0.000999 µM): 74.8%
- viability, T/C (second compound 10 µM, first compound 0.00316 µM): 77.6%
- viability, T/C (second compound 10 µM, first compound 0.00999 µM): 71.8%
- viability, T/C [31]: 75.9%
- viability, T/C (second compound 10 µM, first compound 0.0999 µM): 74.8%
- viability, T/C [33]: 63.4%

SMILES: O=c1[nH]cc(F)c(=O)[nH]1 + Cc1[nH]c2ccc(F)cc2c1-c1nc2c3cccnc3c3ncccc3c2[nH]1
- IC50 (second compound 0.0316 µM): > 10 µM
- IC50 (second compound 0.1 µM): > 10 µM
- IC50 (second compound 0.316 µM): > 10 µM
- IC50 (second compound 1 µM): > 10 µM
- IC50 (second compound 3.16 µM): > 10 µM
- IC50 (second compound 10 µM): > 10 µM
- viability, T/C [1]: 102%
- viability, T/C [2]: 91.1%
- viability, T/C [3]: 99.1%
- viability, T/C [4]: 92.3%
- viability, T/C [5]: 89%
- viability, T/C [6]: 108%
- viability, T/C [7]: 98.4%
- viability, T/C [8]: 77.3%
- viability, T/C [9]: 92.2%
- viability, T/C [10]: 82.2%
- viability, T/C [11]: 94.8%
- viability, T/C [12]: 98.6%
- viability, T/C [13]: 104%
- viability, T/C [14]: 74.1%
- viability, T/C [15]: 89.1%
- viability, T/C [16]: 62.4%
- viability, T/C [17]: 98.8%
- viability, T/C [18]: 87%
- viability, T/C [19]: 84.5%
- viability, T/C [20]: 91.8%
- viability, T/C [21]: 76.2%
- viability, T/C [22]: 82.3%
- viability, T/C [23]: 88.2%
- viability, T/C [24]: 89.2%
- viability, T/C [25]: 82.1%
- viability, T/C [26]: 81.7%
- viability, T/C [27]: 83.7%
- viability, T/C [28]: 69.8%
- viability, T/C [29]: 74.1%
- viability, T/C [30]: 66.3%
- viability, T/C [31]: 59.8%
- viability, T/C [32]: 73%
- viability, T/C [33]: 75.8%
- viability, T/C [34]: 75.9%
- viability, T/C [35]: 74.1%
- viability, T/C [36]: 78.3%

— PubChem BioAssay AID2060492 (Molecular Pharmacology Branch, DTP, NCI, 2025)
